Results on eight compounds are retold here after BindingDB's records for doi:10.1021/jm00164a028 (Wyeth Research, 1990).

This assay addresses Thromboxane-A synthase (Oryctolagus cuniculus). As to the kind of experiment: Inhibition of Thromboxane A2 synthetase in rabbit platelets.

pIC50: −log10 of the molar value.

In general, pIC50 refers to −log10 of the IC50, conventionally taken in molar units. Lower therefore signals a high IC50.

`CCOC(=O)C1=C(Cn2ccnc2)N=C(C)C(C(=O)OC)C1c1cccc(C(F)(F)F)c1Cl` (stereo not drawn) gave a negative-log IC50 (pIC50) of 4.80. The compound `CCOC(=O)C1=C(Cn2ccnc2)N=C(C)C(C(=O)OC)C1c1ccccc1[N+](=O)[O-]` (stereo not drawn) had a pIC50 of 5.49.

Consider `CCOC(=O)C1=C(CCn2ccnc2)N=C(C)C(C(=O)OCC)C1c1cccc([N+](=O)[O-])c1` (stereo not drawn), for which the pIC50 was 4.96.

Turning to `CCOC(=O)C1=C(Cn2ccnc2)N=C(C)C(C(=O)OC)C1c1cccc([N+](=O)[O-])c1` (stereo not drawn), the pIC50 is 5.30.

`CCOC(=O)C1=C(COCCn2ccnc2)N=C(C)C(C(=O)OC)C1c1cccc([N+](=O)[O-])c1` (stereo not drawn) showed a pIC50 of 3.94.

For `CCOC(=O)C1=C(Cn2ccnc2)N=C(C)C(C(=O)OCC)C1c1cccc([N+](=O)[O-])c1` (stereo not drawn), the pIC50 is 5.85. The compound `CCOC(=O)C1=C(Cn2ccnc2)N=C(C)C(C(=O)OC(C)C)C1c1cccc([N+](=O)[O-])c1` (stereo not drawn) had a pIC50 of 5.70. Regarding `CCOC(=O)C1=C(Cn2ccnc2)N=C(C)C(C(=O)OC(C)(C)C)C1c1cccc([N+](=O)[O-])c1` (stereo not drawn), the pIC50 is 4.64.
